Results as given in patent US20100004221A1, “THIAZEPINE DERIVATIVE” (DAIICHI SANKYO COMPANY, LIMITED, priority 2006, published 2010).

| melting point [°C] | Compound |
| --- | --- |
| 206 to 209 | CC1(CO)Cc2nnc(-c3ccc(-c4cccc(F)c4)cc3Cl)n2CCS1 (stereo not shown) [Example 15, [3-(3-Chloro-3′-fluorobiphenyl-4-yl)-8-methyl-5,6,8,9-tetrahydro[1,2,4]triazolo[4,3-d][1,4]thiazepin-8-yl]methanol] |
| 125 | CCc1ccccc1-c1nnc2n1CCSC(C)(C)C2 [Example 48, 3-(2-Ethylphenyl)-8,8-dimethyl-5,6,8,9-tetrahydro[1,2,4]triazolo[4,3-d][1,4]thiazepine] |
| 117 to 120 | CC1(CO)Cc2nnc(-c3cccc4c3ccn4-c3ccc(F)cc3)n2CCS1 (stereo not shown) [Example 43, {3-[1-(4-Fluorophenyl)-1H-indol-4-yl]-8-methyl-5,6,8,9-tetrahydro[1,2,4]triazolo[4,3-d][1,4]thiazepin-8-yl}methanol] |
| 206 to 209 | CC1(CO)Cc2nnc(-c3ccc(-c4cccnc4)cc3Cl)n2CCS1 (stereo not shown) [Example 35, {3-[2-Chloro-4-(pyridin-3-yl)phenyl]-8-methyl-5,6,8,9-tetrahydro[1,2,4]triazolo[4,3-d][1,4]thiazepin-8-yl}methanol] |
| 177 to 180 | CC1(CO)Cc2nnc(-c3ccc(-c4ccccc4Cl)cc3Cl)n2CCS1 (stereo not shown) [Example 14, [3-(3,2′-Dichlorobiphenyl-4-yl)-8-methyl-5,6,8,9-tetrahydro[1,2,4]triazolo[4,3-d][1,4]thiazepin-8-yl]methanol] |
| 106 to 107 | Cc1ccccc1-c1nnc2n1CCSC(C)(C)C2 [Example 46, 8,8-Dimethyl-3-(2-methylphenyl)-5,6,8,9-tetrahydro[1,2,4]triazolo[4,3-d][1,4]thiazepine] |
| 165 to 168 | CC1(CO)Cc2nnc(-c3ccc(-c4cccc(Cl)c4)cc3F)n2CCS1 (stereo not shown) [Example 11, [3-(3′-Chloro-3-fluorobiphenyl-4-yl)-8-methyl-5,6,8,9-tetrahydro[1,2,4]triazolo[4,3-d][1,4]thiazepin-8-yl]methanol] |
| 193 to 196 | CC1(CO)Cc2nnc(-c3ccc(N4CCCC4)cc3Cl)n2CCS1 (stereo not shown) [Example 39, {3-[2-Chloro-4-(pyrrolidin-1-yl)phenyl]-8-methyl-5,6,8,9-tetrahydro[1,2,4]triazolo[4,3-d][1,4]thiazepin-8-yl}methanol] |
| 232 to 236 | COc1cc(-c2cccc(C#N)c2)ccc1-c1nnc2n1CCSC(C)(CO)C2 (stereo not shown) [Example 25, 4′-[8-(Hydroxymethyl)-8-methyl-5,6,8,9-tetrahydro[1,2,4]triazolo[4,3-d][1,4]thiazepin-3-yl]-3′-methoxybiphenyl-3-carbonitrile] |
| 179 to 182 | COc1ccc(-c2ccc(-c3nnc4n3CCSC(C)(CO)C4)c(Cl)c2)cc1 (stereo not shown) [Example 21, [3-(3-Chloro-4′-methoxybiphenyl-4-yl)-8-methyl-5,6,8,9-tetrahydro[1,2,4]triazolo[4,3-d][1,4]thiazepin-8-yl]methanol] |
| 212 to 215 | COc1cc(-c2ccc(F)cc2)ccc1-c1nnc2n1CCSC(C)(CO)C2 (stereo not shown) [Example 10, [3-(4′-Fluoro-3-methoxybiphenyl-4-yl)-8-methyl-5,6,8,9-tetrahydro[1,2,4]triazolo[4,3-d][1,4]thiazepin-8-yl]methanol] |
| 235 to 239 | CC1(CO)Cc2nnc(-c3ccc(-c4ccc(F)c(Cl)c4)cc3Cl)n2CCS1 (stereo not shown) [Example 30, [3-(3,3′-Dichloro-4′-fluorobiphenyl-4-yl)-8-methyl-5,6,8,9-tetrahydro[1,2,4]triazolo[4,3-d][1,4]thiazepin-8-yl]methanol] |
| 219 to 223 | CC1(CO)Cc2nnc(-c3ccc(-c4ccc(Cl)cc4)cc3Cl)n2CCS1 (stereo not shown) [Example 19, [3-(3,4′-Dichlorobiphenyl-4-yl)-8-methyl-5,6,8,9-tetrahydro[1,2,4]triazolo[4,3-d][1,4]thiazepin-8-yl]methanol] |
| 166 to 169 | CC1(CO)Cc2nnc(-c3ccc(-c4ccccc4)cc3Cl)n2CCS1 (stereo not shown) [Example 9, [3-(3-Chlorobiphenyl-4-yl)-8-methyl-5,6,8,9-tetrahydro[1,2,4]triazolo[4,3-d][1,4]thiazepin-8-yl]methanol] |
| 192 to 195 | CC1(CO)Cc2nnc(-c3cccc(-c4ccc(F)cc4)c3Cl)n2CCS1 (stereo not shown) [Example 33, [3-(2-Chloro-4′-fluorobiphenyl-3-yl)-8-methyl-5,6,8,9-tetrahydro[1,2,4]triazolo[4,3-d][1,4]thiazepin-8-yl]methanol] |
| 231 to 234 | CC1(CO)Cc2nnc(-c3ccc(-c4ccc(F)c(F)c4)cc3Cl)n2CCS1 (stereo not shown) [Example 26, [3-(3-Chloro-3′,4′-difluorobiphenyl-4-yl)-8-methyl-5,6,8,9-tetrahydro[1,2,4]triazolo[4,3-d][1,4]thiazepin-8-yl]methanol] |
| 186 to 189 | CC1(CO)Cc2nnc(-c3ccc(-c4cc(Cl)ccc4F)cc3Cl)n2CCS1 (stereo not shown) [Example 29, [3-(3,5′-Dichloro-2′-fluorobiphenyl-4-yl)-8-methyl-5,6,8,9-tetrahydro[1,2,4]triazolo[4,3-d][1,4]thiazepin-8-yl]methanol] |

| melting point [°C] | Compound |
| --- | --- |
| 173 to 176 | CC1(CO)Cc2nnc(-c3ccc(-c4cccc(Cl)c4)cc3Cl)n2CCS1 (stereo not shown) [Example 16, [3-(3,3′-Dichlorobiphenyl-4-yl)-8-methyl-5,6,8,9-tetrahydro[1,2,4]triazolo[4,3-d][1,4]thiazepin-8-yl]methanol] |
| 229 to 233 | CC1(CO)Cc2nnc(-c3ccc(-c4ccncc4)cc3Cl)n2CCS1 (stereo not shown) [Example 36, {3-[2-Chloro-4-(pyridin-4-yl)phenyl]-8-methyl-5,6,8,9-tetrahydro[1,2,4]triazolo[4,3-d][1,4]thiazepin-8-yl}methanol] |
| 195 to 198 | CC1(CO)Cc2nnc(-c3ccc(-c4cccc(C(F)(F)F)c4)cc3Cl)n2CCS1 (stereo not shown) [Example 17, [3-(3-Chloro-3′-trifluoromethylbiphenyl-4-yl)-8-methyl-5,6,8,9-tetrahydro[1,2,4]triazolo[4,3-d][1,4]thiazepin-8-yl]methanol] |
| 195 to 198 | CC1(CO)Cc2nnc(-c3ccc(N4CCCCC4)cc3Cl)n2CCS1 (stereo not shown) [Example 38, {3-[2-Chloro-4-(piperidin-1-yl)phenyl]-8-methyl-5,6,8,9-tetrahydro[1,2,4]triazolo[4,3-d][1,4]thiazepin-8-yl}methanol] |
| 177 to 182 | CC1(C)Cc2nnc(-c3ccc(F)cc3Cl)n2CCS1 [Example 50, 3-(2-Chloro-4-fluorophenyl)-8,8-dimethyl-5,6,8,9-tetrahydro[1,2,4]triazolo[4,3-d][1,4]thiazepine] |
| 183 to 185 | CC1(C)Cc2nnc(-c3ccccc3Cl)n2CCS1 [Example 45, 3-(2-Chlorophenyl)-8,8-dimethyl-5,6,8,9-tetrahydro[1,2,4]triazolo[4,3-d][1,4]thiazepine] |
| 165 to 168 | CC1(CO)Cc2nnc(-c3cc(-c4ccc(F)cc4)ccc3Cl)n2CCS1 (stereo not shown) [Example 34, [3-(4-Chloro-4′-fluorobiphenyl-3-yl)-8-methyl-5,6,8,9-tetrahydro[1,2,4]triazolo[4,3-d][1,4]thiazepin-8-yl]methanol] |
| 141 to 143 | COc1ccccc1-c1nnc2n1CCSC(C)(C)C2 [Example 47, 8,8-Dimethyl-3-(2-methoxyphenyl)-5,6,8,9-tetrahydro[1,2,4]triazolo[4,3-d][1,4]thiazepine] |
| 156 to 160 | CC1(CO)Cc2nnc(-c3ccc(-c4cccc(Cl)c4F)cc3Cl)n2CCS1 (stereo not shown) [Example 28, [3-(3,3′-Dichloro-2′-fluorobiphenyl-4-yl)-8-methyl-5,6,8,9-tetrahydro[1,2,4]triazolo[4,3-d][1,4]thiazepin-8-yl]methanol] |
| 223 to 225 | Cc1ccc(-c2ccc(-c3nnc4n3CCSC(C)(CO)C4)c(Cl)c2)cc1 (stereo not shown) [Example 20, [3-(3-Chloro-4′-methylbiphenyl-4-yl)-8-methyl-5,6,8,9-tetrahydro[1,2,4]triazolo[4,3-d][1,4]thiazepin-8-yl]methanol] |
| 250 to 252 | COc1cc(-c2cccc(NS(C)(=O)=O)c2)ccc1-c1nnc2n1CCSC(C)(CO)C2 (stereo not shown) [Example 55, N-{4′-[8-(Hydroxymethyl)-8-methyl-5,6,8,9-tetrahydro[1,2,4]triazolo[4,3-d][1,4]thiazepin-3-yl]-3′-methoxybiphenyl-3-yl}methanesulfonamide] |
| 110 to 112 | CC1(CO)Cc2nnc(-c3ccc(-n4cccc4)cc3Cl)n2CCS1 (stereo not shown) [Example 40, {3-[2-Chloro-4-(1H-pyrrol-1-yl)phenyl]-8-methyl-5,6,8,9-tetrahydro[1,2,4]triazolo[4,3-d][1,4]thiazepin-8-yl}methanol] |
| 211 to 214 | CC1(CO)Cc2nnc(-c3ccc(-c4ccc(F)cc4)cc3Cl)n2CCS1 (single isomer, unassigned; (+)) [Example 57, (+)-[3-(3-Chloro-4′-fluorobiphenyl-4-yl)-8-methyl-5,6,8,9-tetrahydro[1,2,4]triazolo[4,3-d][1,4]thiazepin-8-yl]methanol] |
| 147 to 149 | CC1(CO)Cc2nnc(-c3ccc(-c4ccccc4F)cc3Cl)n2CCS1 (stereo not shown) [Example 13, [3-(3-Chloro-2′-fluorobiphenyl-4-yl)-8-methyl-5,6,8,9-tetrahydro[1,2,4]triazolo[4,3-d][1,4]thiazepin-8-yl]methanol] |
| 183 to 185 | COc1cc(-c2ccc(F)c(F)c2)ccc1-c1nnc2n1CCSC(C)(CO)C2 (stereo not shown) [Example 31, [3-(3′,4′-Difluoro-3-methoxybiphenyl-4-yl)-8-methyl-5,6,8,9-tetrahydro[1,2,4]triazolo[4,3-d][1,4]thiazepin-8-yl]methanol] |
| 212 to 215 | CC1(CO)Cc2nnc(-c3ccc(-c4ccc(F)cc4)cc3Cl)n2CCS1 (single isomer, unassigned; (-)) [Example 56, (−)-[3-(3-chloro-4′-fluorobiphenyl-4-yl)-8-methyl-5,6,8,9-tetrahydro[1,2,4]triazolo[4,3-d][1,4]thiazepin-8-yl]methanol] |
| 173 to 176 | COc1cc(-c2cccc(Cl)c2)ccc1-c1nnc2n1CCSC(C)(CO)C2 (stereo not shown) [Example 24, [3-(3′-Chloro-3-methoxybiphenyl-4-yl)-8-methyl-5,6,8,9-tetrahydro[1,2,4]triazolo[4,3-d][1,4]thiazepin-8-yl]methanol] |
